Experimental data from US20250136606A1, “MODULATORS OF TRPML, THEIR COMPOSITIONS AND METHODS OF USE” (Caraway Therapeutics, Inc., priority 2021, published 2025).

What was measured:
Type in all cases: cell-based
[1] = target: T1, TRPML2 (Homo sapiens, UniProt Q8IZK6); experiment: Fluorescent TRPML2 assay (performed as for TRPML1, substituting the TRPML2 subtype)
T1 construct: expressed in transfected cells
T1 sequence (Q8IZK6 1-566): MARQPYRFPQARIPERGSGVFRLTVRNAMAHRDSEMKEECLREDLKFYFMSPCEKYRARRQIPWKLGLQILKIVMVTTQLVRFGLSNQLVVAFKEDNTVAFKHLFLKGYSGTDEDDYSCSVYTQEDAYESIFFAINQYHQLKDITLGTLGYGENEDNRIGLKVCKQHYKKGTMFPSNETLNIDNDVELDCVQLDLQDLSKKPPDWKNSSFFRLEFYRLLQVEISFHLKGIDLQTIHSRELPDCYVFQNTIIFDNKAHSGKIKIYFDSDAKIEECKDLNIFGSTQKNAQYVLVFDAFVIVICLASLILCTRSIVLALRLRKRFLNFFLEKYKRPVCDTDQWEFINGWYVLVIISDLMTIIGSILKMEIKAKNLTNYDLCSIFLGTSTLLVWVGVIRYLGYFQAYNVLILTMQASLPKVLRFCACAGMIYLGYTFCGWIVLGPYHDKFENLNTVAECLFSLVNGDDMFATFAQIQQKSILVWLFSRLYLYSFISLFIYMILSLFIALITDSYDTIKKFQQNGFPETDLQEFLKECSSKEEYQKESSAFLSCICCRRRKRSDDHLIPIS
Outline: (§1)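 Agonist activity is scored as percent of plate controls from Fluo4 fluorescence after dye-loaded, doxycycline-induced HEK-293 Trex cells meet compound in high-calcium (10 mM) Ringer's. Compounds run in half-log dilutions from 20 micromolar final, in triplicate.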

[2] = target: T2, TRPML3 (Homo sapiens, UniProt Q8TDD5); experiment: Fluorescent TRPML3 assay (performed as for TRPML1, substituting the TRPML3 subtype)
T2 construct: expressed in transfected cells
T2 sequence (Q8TDD5 1-553): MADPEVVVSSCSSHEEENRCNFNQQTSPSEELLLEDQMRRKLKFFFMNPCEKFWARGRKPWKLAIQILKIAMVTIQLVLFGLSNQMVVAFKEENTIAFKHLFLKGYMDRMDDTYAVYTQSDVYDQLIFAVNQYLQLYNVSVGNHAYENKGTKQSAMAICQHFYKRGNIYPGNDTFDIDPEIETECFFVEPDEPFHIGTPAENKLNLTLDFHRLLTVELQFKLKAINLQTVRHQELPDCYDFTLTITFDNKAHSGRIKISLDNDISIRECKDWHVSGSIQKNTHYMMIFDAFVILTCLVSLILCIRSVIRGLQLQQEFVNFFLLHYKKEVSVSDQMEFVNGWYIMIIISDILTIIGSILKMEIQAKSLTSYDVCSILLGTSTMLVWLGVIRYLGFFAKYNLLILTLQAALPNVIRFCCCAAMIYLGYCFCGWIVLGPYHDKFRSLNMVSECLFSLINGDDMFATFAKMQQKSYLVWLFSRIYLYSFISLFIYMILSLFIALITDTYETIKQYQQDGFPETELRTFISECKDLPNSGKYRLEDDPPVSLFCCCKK
Outline: as §1

[3] = target: TRPML1 (Homo sapiens, UniProt Q9GZU1); experiment: Fluorescent TRPML1 assay (Fluo4-AM calcium fluorescence in doxycycline-induced HEK-293 Trex cells)
Outline: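 EC50 values come from non-linear regression of percent activity, normalized to on-plate positive and negative controls, with fluorescence read at 480 nm excitation and 540 nm emission. Fluo4-AM-loaded (1 µM) doxycycline-induced HEK-293 Trex cells expressing mutated human TRPML1 were exposed in 10 mM calcium Ringer's to 6 nM–20 µM compound, in triplicate.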

Sequence of TRPML1 (Q9GZU1 whole entry L15A/L16A/L577A/L578A, form open): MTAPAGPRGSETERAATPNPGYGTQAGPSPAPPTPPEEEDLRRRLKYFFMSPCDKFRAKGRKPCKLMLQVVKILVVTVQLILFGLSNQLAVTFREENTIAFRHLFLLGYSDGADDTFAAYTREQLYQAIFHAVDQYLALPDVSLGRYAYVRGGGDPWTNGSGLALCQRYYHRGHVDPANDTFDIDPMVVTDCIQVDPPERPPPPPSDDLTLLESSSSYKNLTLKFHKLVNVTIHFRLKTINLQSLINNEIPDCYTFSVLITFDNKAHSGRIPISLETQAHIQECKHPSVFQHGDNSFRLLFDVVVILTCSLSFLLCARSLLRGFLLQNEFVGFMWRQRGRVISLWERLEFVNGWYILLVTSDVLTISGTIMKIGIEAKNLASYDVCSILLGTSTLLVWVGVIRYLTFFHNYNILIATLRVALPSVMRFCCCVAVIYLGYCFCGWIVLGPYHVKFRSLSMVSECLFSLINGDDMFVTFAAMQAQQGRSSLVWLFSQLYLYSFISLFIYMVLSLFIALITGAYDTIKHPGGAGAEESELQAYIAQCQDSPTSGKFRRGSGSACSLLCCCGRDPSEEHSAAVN

| SMILES | EC50 [1] | EC50 [2] | EC50 [3] |
| --- | --- | --- | --- |
| CC(C)(C)OC(=O)N1CCN(c2ncnc3c2c(N2CCCC2)cn3-c2cc(C#N)ccn2)C(C)(C)C1 [Compound 601, tert-butyl 4-(7-(4-cyanopyridin-2-yl)-5-(pyrrolidin-1-yl)-7H-pyrrolo[2,3-d]pyrimidin-4-yl)-3,3-dimethylpiperazine-1-carboxylate] | 100 to 500 nM | < 100 nM | < 100 nM |
| C[C@@H]1CN(c2ncnc3c2c(C(F)(F)F)cn3-c2cc(C#N)ccn2)[C@@H](C)CN1C(=O)OC1(C(F)(F)F)CCC1 [Compound 604, 1-(trifluoromethyl)cyclobutyl (2R,5S)-4-(7-(4-cyanopyridin-2-yl)-5-(trifluoromethyl)-7H-pyrrolo[2,3-d]pyrimidin-4-yl)-2,5-dimethylpiperazine-1-carboxylate] | 100 to 500 nM | < 100 nM | < 100 nM |
| C[C@@H]1CN(c2ncnc3c2c(C(F)F)cn3-c2cc(C#N)ccn2)[C@@H](C)CN1C(=O)OC1(C)CCC1 [Compound 605, 1-methylcyclobutyl (2R,5S)-4-(7-(4-cyanopyridin-2-yl)-5-(difluoromethyl)-7H-pyrrolo[2,3-d]pyrimidin-4-yl)-2,5-dimethylpiperazine-1-carboxylate] | 100 to 500 nM | < 100 nM | < 100 nM |
| C[C@@H]1CN(c2ncnc3c2c(C(F)F)cn3-c2cccc(Cl)c2)[C@@H](C)CN1C(=O)OC1(C)CC1 [Compound 608, 1-methylcyclopropyl (2R,5S)-4-(7-(3-chlorophenyl)-5-(difluoromethyl)-7H-pyrrolo[2,3-d]pyrimidin-4-yl)-2,5-dimethylpiperazine-1-carboxylate] | > 2000 nM | < 100 nM | 100 to 500 nM |
| CC(C)(C)OC(=O)N1CCN(c2ncnc3c2c(C(F)F)cn3-c2cc(C#N)ccn2)CC1 [Compound 609, tert-buty1 4-(7-(4-cyanopyridin-2-yl)-5-(difluoromethyl)-7H-pyrrolo[2,3-d]pyrimidin-4-yl)piperazine-1-carboxylate] | 500 to 2000 nM | < 100 nM | < 100 nM |
| C[C@H]1CN(C(=O)OC(C)(C)C)CCN1c1nccc2c1c(C1(C)CC1)cn2-c1cc(C#N)ccn1 [Compound 612, tert-butyl (S)-4-(1-(4-cyanopyridin-2-yl)-3-(1-methylcyclopropyl)-1H-pyrrolo[3,2-c]pyridin-4-yl)-3-methylpiperazine-1-carboxylate] | 500 to 2000 nM | 100 to 500 nM | < 100 nM |
| C[C@@H]1CN(c2ncnc3c2c(C(F)F)cn3-c2cc(C#N)ccn2)[C@@H](C)CN1C(=O)OC1(C(F)(F)F)CCC1 [Compound 614, 1-(trifluoromethyl)cyclobutyl (2R,5S)-4-(7-(4-cyanopyridin-2-yl)-5-(difluoromethyl)-7H-pyrrolo[2,3-d]pyrimidin-4-yl)-2,5-dimethylpiperazine-1-carboxylate] | 100 to 500 nM | < 100 nM | < 100 nM |
| CC1CC1c1cn(-c2cccc(C#N)c2)c2ncnc(N3CCN(C(=O)OC(C)(C)C)C[C@@H]3C)c12 (stereo partly drawn) [Compound 616] | < 100 nM | < 100 nM | < 100 nM |

Now from value to compound:

| EC50 [1] | EC50 [2] | EC50 [3] | SMILES |
| --- | --- | --- | --- |
| < 100 nM | < 100 nM | < 100 nM | C[C@@H]1CN(c2ncnc3c2c(C(C)(C)C)cn3-c2cc(C#N)ncn2)[C@@H](C)CN1C(=O)OC(C)(C)C [Compound 533, tert-butyl (2R,5S)-4-(5-(tert-butyl)-7-(6-cyanopyrimidin-4-yl)-7H-pyrrolo[2,3-d]pyrimidin-4-yl)-2,5-dimethylpiperazine-1-carboxylate] |
| < 100 nM | < 100 nM | < 100 nM | C[C@@H]1CN(c2ncnc3c2c(C(F)(F)F)cn3-c2cc(C#N)ccn2)[C@@H](C)CN1C(=O)OC1(C)CCC1 [Compound 535, 1-methylcyclobutyl (2R,5S)-4-(7-(4-cyanopyridin-2-yl)-5-(trifluoromethyl)-7H-pyrrolo[2,3-d]pyrimidin-4-yl)-2,5-dimethylpiperazine-1-carboxylate] |
| < 100 nM | < 100 nM | < 100 nM | C[C@@H]1CN(c2ncnc3c2c(C(F)(F)F)cn3-c2cc(C(F)(F)F)ccn2)[C@@H](C)CN1C(=O)OC(C)(C)C [Compound 536, tert-butyl (2R,5S)-2,5-dimethyl-4-(5-(trifluoromethyl)-7-(4-(trifluoromethyl)pyridin-2-yl)-7H-pyrrolo[2,3-d]pyrimidin-4-yl)piperazine-1-carboxylate] |
| < 100 nM | < 100 nM | < 100 nM | Cc1cn(-c2cc(C(F)(F)F)ccn2)c2ncnc(N3C[C@@H](C)N(C(=O)OC(C)(C)C)C[C@@H]3C)c12 [Compound 537, tert-butyl (2R,5S)-2,5-dimethyl-4-(5-methyl-7-(4-(trifluoromethyl)pyridin-2-yl)-7H-pyrrolo[2,3-d]pyrimidin-4-yl)piperazine-1-carboxylate] |
| 100 to 500 nM | < 100 nM | < 100 nM | [2H]C([2H])([2H])C(OC(=O)N1C[C@H](C)N(c2ncnc3c2c(C(F)F)cn3-c2cc(C#N)ccn2)C[C@H]1C)(C([2H])([2H])[2H])C([2H])([2H])[2H] [Compound 538, 2-(methyl-d3)propan-2-yl-1,1,1,3,3,3-d6 (2R,5S)-4-(7-(4-cyanopyridin-2-yl)-5-(difluoromethyl)-7H-pyrrolo[2,3-d]pyrimidin-4-yl)-2,5-dimethylpiperazine-1-carboxylate] |
| 500 to 2000 nM | 100 to 500 nM | < 100 nM | [2H]C([2H])([2H])C(OC(=O)N1C[C@@H](C)N(c2ncnc3c2c(C(F)(F)F)cn3-c2cc(C#N)ccn2)C[C@H]1C)(C([2H])([2H])[2H])C([2H])([2H])[2H] [Compound 602, 2-(methyl-d3)propan-2-yl-1,1,1,3,3,3-d6 (2R,5R)-4-(7-(4-cyanopyridin-2-yl)-5-(trifluoromethyl)-7H-pyrrolo[2,3-d]pyrimidin-4-yl)-2,5-dimethylpiperazine-1-carboxylate] |
| 500 to 2000 nM | < 100 nM | < 100 nM | [2H]C([2H])([2H])C(OC(=O)N1C[C@H](C)N(c2ncnc3c2c(C(F)(F)F)cn3-c2cc(C#N)ccn2)C[C@@H]1C)(C([2H])([2H])[2H])C([2H])([2H])[2H] [Compound 603, 2-(methyl-d3)propan-2-yl-1,1,1,3,3,3-d6 (2S,5S)-4-(7-(4-cyanopyridin-2-yl)-5-(trifluoromethyl)-7H-pyrrolo[2,3-d]pyrimidin-4-yl)-2,5-dimethylpiperazine-1-carboxylate] |
| 500 to 2000 nM | < 100 nM | < 100 nM | [2H]C([2H])([2H])[C@@H]1CN(c2ncnc3c2c(C(F)F)cn3-c2cc(C#N)ccn2)[C@@H](C)CN1C(=O)OC(C)(C)C [Compound 610, tert-butyl (2R,5S)-4-(7-(4-cyanopyridin-2-yl)-5-(difluoromethyl)-7H-pyrrolo[2,3-d]pyrimidin-4-yl)-5-methyl-2-(methyl-d3)piperazine-1-carboxylate] |
| < 100 nM | < 100 nM | < 100 nM | CC1CC1c1cn(-c2cc(C#N)ccn2)c2ncnc(N3CCN(C(=O)OC(C)(C)C)C[C@@H]3C)c12 (stereo partly drawn) [Compound 615, tert-butyl (3S)-4-(7-(4-cyanopyridin-2-yl)-5-(2-methylcyclopropyl)-7H-pyrrolo[2,3-d]pyrimidin-4-yl)-3-methylpiperazine-1-carboxylate] |
| > 2000 nM | 100 to 500 nM | < 100 nM | C[C@@H]1CN(c2ncnc3c2c(CC(F)(F)F)cn3-c2nccc(C#N)n2)[C@@H](C)CN1C(=O)OC(C)(C)C [Compound 617, tert-butyl (2R,5S)-4-(7-(4-cyanopyrimidin-2-yl)-5-(2,2,2-trifluoroethyl)-7H-pyrrolo[2,3-d]pyrimidin-4-yl)-2,5-dimethylpiperazine-1-carboxylate] |
